The record followed here is article PMC3346935 (2012).

In experiment [1] the test system is RNA 44 (RNA, aptamer) GGCAAGUACUCUGACGCUAGGCAGCGGCGAGGGAAGUUGGAGCUUAGACCAGUUAGGAGCUGGAGACCAGGCAGUCGGCGUAGAGGAGGACAGCG
Description: affinity column elution. Conditions: 600 mM NaCl, 5 mM MgCl2, 5 mM CaCl2; 50 mM HEPES pH 7.0.

For experiment [2], the system named is RNA 25 (RNA, aptamer) GGCAAGUACUCUGACGCCGAAGCCAGCCGGCGAUUGGGAACGACGGAAUUCCUCACUUCUGUUAAAGGUCAACCAGGGCGUAGAGGAGGACAGCG
Description: isocratic affinity elution from His–Phe–Sepharose. Conditions: 600 mM NaCl, 5 mM MgCl2, 5 mM CaCl2; 50 mM HEPES pH 7.0.

Experiment [3] has as its system RNA 7 (RNA, aptamer) GGCAAGUACUCUGACGCAGAUGGAAGUACCUUUGAACUGGGGGAGAAUGGUUAUGAGAAUCUAGCGAAGCCGGAGGUGCGUAGAGGAGGACAGCG
Description: isocratic affinity elution from His–Phe–Sepharose. Conditions: 600 mM NaCl, 5 mM MgCl2, 5 mM CaCl2; 50 mM HEPES pH 7.0.

The test system of experiment [4] is RNA 8 (RNA, aptamer) GGCAAGUACUCUGACGCAGUGGAAGUUAUGUGUAUGCGGUAGAUAGGUAACGUUCUGUCAUAGGAAGGUACUAUCGUGCGUAGAGGAGGACAGCG
Description: isocratic affinity elution from His–Phe–Sepharose. Conditions: 600 mM NaCl, 5 mM MgCl2, 5 mM CaCl2; 50 mM HEPES pH 7.0.

Experiment [5] deals with RNA 40 (RNA, aptamer) GGCAAGUACUCUGACGCAAGGGUAGAUAUGCGUAUAUGCAGAUCCCAAAUAAAGGACGAAUUUAGUACGGGGGGUGUGCGUAGAGGAGGACAGCG
Description: isocratic affinity elution from His–Phe–Sepharose. Conditions: 600 mM NaCl, 5 mM MgCl2, 5 mM CaCl2; 50 mM HEPES pH 7.0.

Experiment [6] has as its system RNA 11 (RNA, aptamer) GGCAAGUACUCUGACGCGAGGGUGGAUACGUGUAUGCGGUUACAUCUGUGGUUUCUAAAAGAGCAAGCCGAUGUGGCGUAGAGGAGGACAGCG
Description: elution from His–Phe–Sepharose by free ligand. Conditions: 600 mM NaCl, 5 mM MgCl2, 5 mM CaCl2; 50 mM HEPES pH 7.0; 1.5 mM dipeptide.

For experiment [7], the system named is RNA 6 (RNA, aptamer) GGCAAGUACUCUGACGCCGGUGGCGCAGACAGAUUUCCAGUAUGGCACGGACCGGAGAGGGAAGGAUGACAGACGUGGCGUAGAGGAGGACAGCG
Description: elution from His–Phe–Sepharose by free ligand. Conditions: 600 mM NaCl, 5 mM MgCl2, 5 mM CaCl2; 50 mM HEPES pH 7.0; 1.5 mM dipeptide.

The subject of experiment [8] is RNA 35 (RNA, aptamer) GGCAAGUACUCUGACGCGUGGGAAGAUACGUGUAUACGCUAACAUACGGCAAGGUGAGUAGCCGGAAGUAGCAUGUGGCGUAGAGGAGGACAGCG
Description: elution from His–Phe–Sepharose by free ligand. Conditions: 600 mM NaCl, 5 mM MgCl2, 5 mM CaCl2; 50 mM HEPES pH 7.0; 1.5 mM dipeptide.

For experiment [9], the system named is RNA 33 (RNA, aptamer) GGCAAGUACUCUGACGCGCCGAAAUGGGAGGGGUGGCGUUAACCGGCAAAGCUGCACGGGCGAUGAAGAAACGCGGGGCGUAGAGGAGGACAGCG
Description: elution from His–Phe–Sepharose by free ligand. Conditions: 600 mM NaCl, 5 mM MgCl2, 5 mM CaCl2; 50 mM HEPES pH 7.0; 1.5 mM dipeptide.

The subject of experiment [10] is RNA 12 (RNA, aptamer) GGCAAGUACUCUGACGCGUGCUGCGGGCCGUUCAUAGUGGACGGGGUAGACAGAGAACCUUAGACCAAGGUAUCGGCGCGUAGAGGAGGACAGCG
Description: elution from His–Phe–Sepharose by free ligand. Conditions: 600 mM NaCl, 5 mM MgCl2, 5 mM CaCl2; 50 mM HEPES pH 7.0; 1.5 mM dipeptide.

For experiment [11], the system named is RNA 24 (RNA, aptamer) GGCAAGUACUCUGACGCCCUGAGAGCGUAAUGUGACGGACAGUCGCACUGGAGGAGGAGGAAGUGAUGCAUCGAUCGGCGUAGAGGAGGACAGCG
Description: elution from His–Phe–Sepharose by free ligand. Conditions: 600 mM NaCl, 5 mM MgCl2, 5 mM CaCl2; 50 mM HEPES pH 7.0; 1.5 mM dipeptide.

In experiment [12] the test system is RNA 23 (RNA, aptamer) GGCAAGUACUCUGACGCGGAUGGGCCAACGGCGAGCGUCGAAGGAGCUUAGUACCGAAGCAACGCAAGCGUAGAGCGGCGUAGAGGAGGACAGCG
Description: elution from His–Phe–Sepharose by free ligand. Conditions: 600 mM NaCl, 5 mM MgCl2, 5 mM CaCl2; 50 mM HEPES pH 7.0; 1.5 mM dipeptide.

Experiment [13] deals with RNA 13 (RNA, aptamer) GGCAAGUACUCUGACGCCUGAUGUGAUGGCCUUGGUCGAAGCGGGAUCCGACAGCUACUAUAGAGGUGUUGUCGAGGGCGUAGAGGAGGACAGCG
Description: elution from His–Phe–Sepharose by free ligand. Conditions: 600 mM NaCl, 5 mM MgCl2, 5 mM CaCl2; 50 mM HEPES pH 7.0; 1.5 mM dipeptide.

The test system of experiment [14] is RNA 20 (RNA, aptamer) GGCAAGUACUCUGACGCGGAUGGGCCACAACGGAUCAGACGACAGGCAUUCUUUGAAGGAAAGAUCCCAGCAGAGCGGCGUAGAGGAGGACAGCG
Description: elution from His–Phe–Sepharose by free ligand. Conditions: 600 mM NaCl, 5 mM MgCl2, 5 mM CaCl2; 50 mM HEPES pH 7.0; 1.5 mM dipeptide.

Experiment [15] deals with RNA 39 (RNA, aptamer) GGCAAGUACUCUGACGCGGAUGGGCCACCAAAGCACCGAAGGGUAGGAGCCACUAACUUGCGGUGAAUGGAAGAGCGGCGUAGAGGAGGACAGCG
Description: elution from His–Phe–Sepharose by free ligand. Conditions: 600 mM NaCl, 5 mM MgCl2, 5 mM CaCl2; 50 mM HEPES pH 7.0; 1.5 mM dipeptide.

Experiment [16] has as its system RNA 22 (RNA, aptamer) GGCAAGUACUCUGACGCGAAAUGUACAUGGCGUUAAAGUAGACGCAGGAUUAAGUGUGCUGUGGAGUCGAAACGCGGGCGUAGAGGAGGACAGCG
Description: elution from His–Phe–Sepharose by free ligand. Conditions: 600 mM NaCl, 5 mM MgCl2, 5 mM CaCl2; 50 mM HEPES pH 7.0; 1.5 mM dipeptide.

Residues, ends and D or L forms follow the SMILES beside them. A value given as a limit tells only on which side of the number the result lay.

Regarding `N[C@@H](Cc1ccccc1)C(=O)O`, in [1], the binding entry is given as “yes”. The “K D” value in experiment [2] is > 727 mM; in experiment [3], 22 mM; in experiment [4] it was > 34 mM; in experiment [5], > 227 mM.
`N[C@@H](Cc1cnc[nH]1)C(=O)O`: the binding entry in experiment [1] is “no”. In addition, the “K D” value was > 727 mM in experiment [2], > 119 mM in [3], > 34 mM in experiment [4] and > 227 mM in [5].
Regarding `NCC(=O)N[C@@H](Cc1ccccc1)C(=O)O` (H-Gly-Phe-OH), the “K D” value is > 727 mM in experiment [2], 31.6 mM in [3], > 34 mM in experiment [4] and 9.3 mM in experiment [5].
In the case of `N[C@@H](Cc1c[nH]cn1)C(=O)NCC(=O)O` (H-His-Gly-OH), the “K D” value in [2] came to 8.2 mM; in [3], 10.5 mM; in experiment [4], 5.4 mM; in experiment [5] it was 3.4 mM.
Regarding `N[C@@H](Cc1cnc[nH]1)C(=O)N[C@@H](Cc1ccccc1)C(=O)O` (H-His-Phe-OH), the binding result in experiment [6], in [7], in experiment [1], in experiment [8], in experiment [9] and in experiment [10] was “yes” each time. The binding result in experiment [11], in experiment [12], in [13], in [14], in [15] and in [16] was “yes” each time. The “K D” value in experiment [2] was found to be 0.036 ± 0.002 mM; in experiment [3] it was 0.478 ± 0.061 mM; in experiment [4], 0.102 ± 0.033 mM; in experiment [5], 0.077 ± 0.007 mM.
